Assay results reported in paper PMC11111691, “Cystine-knot peptide inhibitors of HTRA1 bind to a cryptic pocket within the active site region” (Nature Communications, 2024).
Positions of bridges follow the written chain, without caps; N, C: chain ends. Residues, ends and D or L forms follow the SMILES beside them.

Key:
[1] = test system: MDCK monolayer; assay: MDCK trans-well cell permeability assay; assay type: in vitro ADME, canine; settings: MDCK trans-well, apical to basolateral, up to 50 µM, 16 h, mass spectrometry
Method: We carried out a cell permeability study using a MDCK trans-well assay, which is commonly
used at Genentech for permeability screening of compounds . This assay measures the flux of test
compound (Papp, apparent permeability) across a MDCK monolayer from the apical to the
basolateral compartment over a 16 h period.
sensitive mass spectrometry method .
10x10-6 cm/s and compounds with Papp values of <1x10-6 cm/s are considered to be of low
Protocol of permeability assay:
Experiments were carried out as described (Chen et al. Evaluating the utility of canine Mdr1 knockout
Madin-Darby canine kidney I cells in permeability screening and efflux substrate determination, Mol
Cells were seeded in 96-well Corning Transwell plates (PET membrane, 1 µm pore size) at 75,000 cells
per well and grown in DMEM media supplemented with 10% FBS, 1% pen-strep and 1x Glutamax at
37C, 5% CO2 for 48 h to ensure monolayer formation. Stock solutions of the three CKPs 1B3, 1D3-ENI
and 1G10-ENI were diluted in Hank's Balanced Salt solution containing 25 mM HEPES, pH 7.4 and 25
µM of the monolayer integrity marker lucifer yellow. CKPs at a concentration of 50 µM were added to
the apical (donor) chamber and the CKP the apparent permeability (Papp) was determined by quantifying
the amount of CKP in the basolateral (receiver) chamber after 16 h incubation at 37C, 5% CO2. The
samples from the basolateral chamber were supplemented with the experiment analytical internal standard
(100 nM propranolol in 50% ACN:50% water with 0.1% formic acid) and then injected in a Sciex Zeno
TOF 7600 mass spectrometer using TOF/MS mode.

[2] = test system: C32 melanoma cells; assay: Cell toxicity assay (CellTiter-Glo), C32; assay type: cell-based, human; settings: 0.6-50 µM CKP, 24 h and 72 h, at least three independent experiments
Method: reduction at the highest CKP concentration of 50 µM after 72 h (see results below). The absence of cell toxicity is likely due to the inability of the CKPs to penetrate cell membranes, which was experimentally determined in response to another reviewer. Due to space limitations we have not […]
Protocol of cell toxicity assay (Figure above):
HeLa cells or C32 melanoma cells were passaged in DMEM media supplemented with 10% FBS, 1% pen-strep and 1x Glutamax using standard culture conditions (5% CO2, 90% humidity at 37°C). At approximately 95% confluence cells were trypsinized, seeded onto 96-well plates (Corning) at 10,000 cells/well and grown for 24 h. Cells were then incubated with the CKPs 3B3, 1D3-ENI and 1G10-ENI (0, 0.6, 1.9, 5.6, 16.7 and 50 µM) at 37°C for 24 h or for 72h. As a positive control we used staurosporine (STS; 1µM). Cell viability was measured using the CellTiter-Glo luminescent cell viability assay (Promega) on an Envision Multilabel plate reader. Average of at least three independent experiments ± S.D. were plotted in Prism 10. Two-way ANOVA was performed on each dataset and compared to no drug samples and no significant viability reductions were observed, except for some treatments at the […]

[3] = target: T1, HTRA1^FL, HTRA1^PD, HTRA1^PD/PDZ (Homo sapiens, UniProt Q92743); assay: Fluorescence-quenched casein-BODIPY assay, HTRA1 constructs; assay type: biochemical; settings: 2 µM CKP (0.5 mM 7mer-ABP)
T1 construct: made in house; host or cells: Trichoplusia ni cells (FL); E. coli (PD, PD/PDZ)
Method: (§1) The fluorescence-quenched casein-BODIPY® assay (EnzCheck®, Thermo Fisher Scientific) was carried out in TNC buffer (50 mM Tris pH 8.0, 200 mM NaCl, 0.25% CHAPS) at 37 °C in 96-well black optical bottom plates (Nalge Nunc Int., Rochester, NY). Enzymes were incubated with CKPs or DMSO control for 15 min prior to addition of casein substrate. The reactant concentrations were: 30 nM HTRA1^FL, 30 nM HTRA1^PD/PDZ, 30 nM HTRA1^PD, 30 nM HTRA2^PD/PDZ, 30 nM HTRA3^FL, 100 nM HTRA3^PD/PDZ, 30 nM HTRA4^FL, 300 nM HTRA4^PD/PDZ, 2 µM CKP, 5 µg/ml casein substrate and 0.25% DMSO. For selectivity assays, 0.5 mM 7mer-ABP was used as positive control. The kinetics of substrate cleavage were measured at 37 °C on a SpectraMax M5 microplate reader (Molecular Devices) with excitation of 485 nm and emission of 530 nm for 30 min (HTRA1 and HTRA2) or 5 h (HTRA3 and HTRA4). The determined initial rates of cleavage were expressed as percent of control (DMSO control) after subtracting the baseline rates (without enzyme).

[4] = target: T2, HTRA4^PD/PDZ, HTRA4^FL (Homo sapiens, UniProt P83105); assay: Fluorescence-quenched casein-BODIPY assay, HTRA4; assay type: biochemical; settings: 30 nM HTRA4^FL, 2 µM CKP (0.5 mM 7mer-ABP)
T2 construct: purchased Abcam (FL form); the PD/PDZ form was made in house in E. coli ab134444
T2 sequence (P83105 32-476): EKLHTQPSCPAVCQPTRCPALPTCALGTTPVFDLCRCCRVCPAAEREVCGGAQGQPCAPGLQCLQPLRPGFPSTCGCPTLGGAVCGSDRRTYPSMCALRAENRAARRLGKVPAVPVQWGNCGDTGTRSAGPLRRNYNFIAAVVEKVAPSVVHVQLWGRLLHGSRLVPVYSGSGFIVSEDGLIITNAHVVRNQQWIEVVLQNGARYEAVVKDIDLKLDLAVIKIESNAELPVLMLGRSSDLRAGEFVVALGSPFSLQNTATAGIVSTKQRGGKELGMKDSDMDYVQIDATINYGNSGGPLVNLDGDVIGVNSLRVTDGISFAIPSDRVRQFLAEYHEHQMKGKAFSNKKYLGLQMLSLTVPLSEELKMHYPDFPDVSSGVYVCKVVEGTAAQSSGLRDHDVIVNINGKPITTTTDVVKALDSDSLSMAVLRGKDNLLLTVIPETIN
Method: as §1

[5] = target: T3, HTRA1^PD/PDZ (Homo sapiens, UniProt Q92743); assay: H2-OPT selectivity assay, HTRA1^PD/PDZ; assay type: biochemical; settings: 3 nM HTRA1^PD/PDZ, 2 µM CKP (0.5 mM 7mer-ABP), 5 µM H2-OPT
T3 construct: made in house; host or cells: E. coli
T3 sequence (Q92743 161-480): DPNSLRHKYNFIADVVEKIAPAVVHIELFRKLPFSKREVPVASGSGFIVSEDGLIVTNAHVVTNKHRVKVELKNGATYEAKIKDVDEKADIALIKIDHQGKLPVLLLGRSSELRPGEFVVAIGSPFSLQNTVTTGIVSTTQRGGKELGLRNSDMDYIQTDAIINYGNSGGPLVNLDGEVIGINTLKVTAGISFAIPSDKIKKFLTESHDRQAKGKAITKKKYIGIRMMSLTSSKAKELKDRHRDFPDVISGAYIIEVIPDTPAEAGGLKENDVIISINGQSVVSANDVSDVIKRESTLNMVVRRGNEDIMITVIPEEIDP
Method: Assays with the fluorescence-quenched synthetic substrate Mca-IRRVSYSFK(Dnp)K (H2-OPT)[38],[60] were carried out essentially as described. CKP stock solutions in DMSO were diluted in TNC buffer (dilution series for IC50 determinations, or final concentration of 2 µM for selectivity assay or as indicated for HTRA1/4 mutants) and incubated with enzymes in 96-well black optical bottom plates for 60 min at 37 °C. For selectivity experiments we used the 7mer-ABP as inhibitor, which was incubated with the proteases for 15 min at 37 °C. A 10 mM stock solution of H2-OPT in DMSO was diluted with water, prewarmed at 37 °C and then added to the CKP-enzyme mixtures. The final concentrations in the reaction mixtures were: 1 nM HTRA1^FL, 3 nM HTRA1^PD/PDZ, 1 nM HTRA1^PD, 1 nM HTRA2^PD/PDZ, 3 nM HTRA3^FL, 60 nM HTRA3^PD/PDZ, 6 nM HTRA4^FL, 1 µM HTRA4^PD/PDZ, 1 nM mouse HTRA1^PD, 25 nM HTRA1^PD-A202Y, 1 µM HTRA4^PD/PDZ-Y200A, 0.5 mM 7mer-ABP, 5 µM H2-OPT, and 0.25% DMSO. The kinetics of substrate cleavage was measured at 37 °C on a SpectraMax M5 microplate reader with excitation of 328 nm and emission of 393 nm. The determined initial rates of cleavage were expressed as percent of control (DMSO control) after subtracting the baseline rates (without enzyme). IC50 values were determined by Sigmoidal 4PL modeling of multiple data points from serial dilutions of CKPs using Prism 9 software (GraphPad). […]

Compound	Cell permeability in the MDCK cell assay [1]	Cell viability, C32 melanoma cells [2]	Inhibition of HTRA1^FL, casein-BODIPY cleavage (% of control) ([3]; 30 nM HTRA1^FL, 5 µg/ml casein, 37 °C)	Inhibition of HTRA1^PD/PDZ, casein-BODIPY cleavage (% of control) ([3]; 30 nM HTRA1^PD/PDZ)	Inhibition of HTRA4^FL, casein-BODIPY cleavage (% of control) [4]	Inhibition of HTRA1^PD/PDZ, H2-OPT (% of control) [5]
CC[C@H](C)[C@H](NC(=O)[C@@H]1CCCN1C(=O)[C@H](CC(=O)O)NC(=O)[C@H](C)NC(=O)[C@@H](N)Cc1c[nH]cn1)C(=O)N[C@H]1CSSC[C@@H]2NC(=O)[C@H](Cc3ccccc3)NC(=O)[C@H](Cc3c[nH]c4ccccc34)NC(=O)[C@H](C)NC(=O)CNC(=O)[C@H](CO)NC(=O)[C@@H]3CSSC[C@@H](C(=O)NCC(=O)N4CCC[C@H]4C(=O)N[C@@H](Cc4ccc(O)cc4)C(=O)N[C@H](C(=O)NCC(N)=O)C(C)C)NC(=O)[C@H](CO)NC(=O)[C@H](Cc4c[nH]c5ccccc45)NC(=O)[C@H]([C@@H](C)O)NC(=O)[C@H](C)NC(=O)[C@H](Cc4ccc(O)cc4)NC(=O)[C@H](Cc4ccc(O)cc4)NC(=O)[C@H](CSSC[C@H](NC(=O)[C@@H]4CCCN4C(=O)[C@H](CCCCN)NC(=O)[C@H](CC(N)=O)NC1=O)C(=O)N[C@@H](CCCCN)C(=O)N[C@@H]([C@@H](C)O)C(=O)N[C@@H](Cc1c[nH]cn1)C(=O)N[C@@H](CC(=O)O)C(=O)N[C@@H](CC(=O)O)C(=O)N3)NC(=O)[C@H](C)NC(=O)[C@H](CCC(N)=O)NC2=O [3B3] (H-HADPICNKPCKTHDDCSGAWFCQACYYATWSCGPYVG-NH2; disulfide 6-22, 10-25, 16-32)	no detectable cell permeability	did not appreciably affect cell viability	–	–	–	–
DPMFKLV-phosphonate [7mer-ABP]	–	–	significantly inhibited	significantly inhibited	significantly inhibited	significantly inhibited
